Test results taken from patent US20130065227A1, “METHODS OF INCREASING MACROPINOCYTOSIS IN CANCER CELLS” (priority 2010, published 2013).
{Fluor} = fluorophore: 5-carboxyfluorescein (FAM) or Alexa Fluor 488

Legend:
Type in all cases: cell-based
DU145 cells [1] = experiment: Uptake of fluorophore-labeled oligonucleotides by flow cytometry
Protocol: FIG. 1 are graphs showing that AS1411 cell internalization is an active process. Cells were plated 18 h before uptake analysis. After incubation as described, cells were washed with ice-cold PBS, incubated with 1 μg/ml 7-AAD, harvested and resuspended in 1% paraformaldehyde containing 2 μg/ml actinomycin D, then analyzed by flow cytometry. (Panel A) DU145 cells were incubated at 37° C. with fresh complete DMEM medium containing 10 μM FL-AS1411 (black line) or 10 μM FL-CRO (gray line) for the time indicated. (Panel B) DU145 cells were incubated for 2 h at 37° C. in complete or serum-free DMEM medium containing 10 μM FL-AS1411, or 10 μM FL-CRO, or no oligonucleotide. (Panel C) Various cell lines were incubated with 10 μM FL-AS1411 (black outline histogram), 10 μM FL-CRO (gray outline histogram) or without DNA (solid gray histogram) at 37° C. or 4° C. for 2 h. All experiments were repeated at least three times. Data are mean of three independent samples; bars, SE; *(p<0.05).
FIG. 2 are graphs showing that AS1411 is internalized by different endocytic mechanisms in DU145 cancer cells and in non-malignant Hs27 cells. DU145 or Hs27 cells were plated 18 h before uptake analysis. Cells were pre-treated as described with inhibitor (gray histogram) or the corresponding vehicle control (black histogram) before addition of 10 μM FL-AS1411 and incubation at 37° C. for 2 h. After incubation, cells were harvested and analyzed by flow cytometry. Pre-treatment conditions were at 37° C. with: (Panel A) 5 μM Cytochalasin D for 30 min; (Panel B) 80 μM Dynasore for 30 min; or (Panel C) 3 mM amiloride for 1 h. All experiments were repeated at least three times and representative data are shown. Solid gray histograms represent background autofluorescence of unstained cells.
DU145 cells were transfected for 48 h without siRNA (mock, M), or with 30 nM of one of three different nucleolin siRNAs (NCL1, NCL2, NCL3) or a control siRNA (scramble, S), or contransfected with 10 nM of each nucleolin siRNAs (mix). (Panel A) Cells were lysed and total cell lyses were analyzed by Western blotting using the antibodies shown. (Panel B) Cell-surface proteins from intact transfected DU145 cells were labeled covalently with membrane-impermeable biotinylating agent. Cells were lysed, then biotinylated plasma membrane proteins were captured with streptavidin-agarose beads and analyzed by blotting with anti-nucleolin antibody (upper panel). After stripping, the membrane was reprobed with antibodies for a plasma membrane marker (anti-pan Cadherin) and a nuclear marker (anti-histone 3) to confirm the fractionation. Total lysate (Lys) was used as control. (Panel C) The medium of transfected cells was replaced by fresh complete DMEM medium containing no oligonucleotide (gray dashed histogram) or 10 μM FL-CRO (gray solid line histogram) or 10 μM FL-AS1411 (black solid line histogram) and incubated at 37° C. for 2 h. After incubation, cells were harvested and analyzed by flow cytometry.
DU145 cells were plated 18 hr before uptake analysis. Cell medium was changed with fresh complete DMEM medium containing different concentrations of FL-AS1411 (black line) or FL-CRO (gray line), and incubated at 37° C. for 2 hrs. After incubation, cells were harvested and analyzed by flow cytometry.
FIG. 9 are graphs showing the effects of inhibitors on various endocytic pathways. DU145 or Hs27 cells were plated 18 hr before uptake analysis. (Panel A) DU145 cells were pre-treated with dynamin inhibitor, […] Dynasore (black histogram) or DMSO (gray histogram) for 30 min at 37° C. After pre-treatment, cells were treated with […] transferrin conjugated with Alexa Fluor 488 for 30 min at 37° C. (Panel B) DU145 and Hs27 cells were pre-treated with 3 mM amiloride (black histogram) or vehicle (serum-free medium, gray histogram) for 1 h at 37° C. After pre-treatment, FL-CRO was added at a concentration of 10 μM and incubated at 37° C. for 2 h. After incubation, cells were harvested and analyzed by FACS. […]

DU145 cells [2] = experiment: Confocal microscopy localization and co-localization
Protocol: FIG. 3 are photographs showing that AS1411 co-localizes with the macropinocytic marker, dextran. DU145 or Hs27 cells were incubated with the reagents indicated, then washed and fixed. Nuclei were stained with DAPI (blue). The distribution of markers was visualized by confocal microscopy and fluorescent images were overlaid to determine co-localization as indicated by the yellow color. (Panel A) 10 μM AS1411 labeled with Alexa Fluor 488 (green) and 0.2 mg/ml dextran-10K, macropinocytic marker, labeled with Alexa Fluor 594 (red) for 2 h at 37° C. (Panel B) Experiments similar to those in Panel A but using FL-CRO in place of FL-AS1411. (Panel C) Cells incubated with 5 μg/ml transferrin labeled with Alexa Fluor 488 (green) and 0.2 mg/ml dextran-10K labeled with Alexa Fluor 594 (red) for 30 min at 37° C. (Panel D) DU145 cells incubated with 5 μg/ml transferrin labeled with Alexa Fluor 594 (red) and 10 μM AS1411 labeled with Alexa Fluor 488 (green) for 30 min at 37° C. Scale bars, 10 μm.
Cells (4×10^4) in fresh supplemented culture medium were plated on 18 mm diameter glass cover slips for 18 h. The media was removed and replaced with serum-free medium containing 10 μM oligodeoxynucleotide, dextran-10K, or transferrin and incubated as describe in the Description of the Drawings. After incubation, cells were washed 3 times with ice-cold PBS, fixed in 4% paraformaldehyde in PBS for 30 min at room temperature, and washed three times with PBS. After washing, the cover slips were mounted on glass slides with ProLong Antifade (Molecular Probes) according to the manufacturer's directions to inhibit photobleaching. Immunofluorescence was documented with an LSM 510 inverted confocal laser-scanning microscope (Carl Zeiss, Oberkochen, Germany) equipped with an Omnichrome argon-krypton laser. Images were obtained with a Zeiss Plan-Apo 63× oil immersion objective (1.4 NA).

SK-N-DZ = experiment: Cell response to AS1411; details: Cancer, neuroblastoma
Description: (§1) It has recently been discovered that AS1411 can stimulate macropinocytosis (MP) in cancer cells and this finding was verified by several different methods and in multiple cancer cell lines (Table 1).

A549 = experiment: Cell response to AS1411; details: Cancer, non-small cell lung
Description: as §1

MDA-MB-231 = experiment: Cell response to AS1411; details: Cancer, breast
Description: as §1

RCC4 = experiment: Cell response to AS1411; details: Cancer, renal cell
Description: as §1

MCF7 = experiment: Cell response to AS1411; details: Cancer, breast
Description: as §1

DU145 = experiment: Cell response to AS1411
Description: as §1

DU145 cells [3] = experiment: Cell death / cytotoxicity

Row | Substance | uptake compared with FL-AS1411 (DU145 cells [1]; 10 μM, 37° C., time course) | uptake compared with FL-AS1411 (confocal microscopy) (DU145 cells [2]; 10 μM, 2 h) | Cells respond? (SK-N-DZ) | Cells respond? (A549) | Cells respond? (MDA-MB-231) | Cells respond? (RCC4) | Cells respond? (MCF7) | sensitivity of cells to AS1411 (DU145) | Cells respond? (DU145; DU145, Cancer, prostate) | saturability of uptake (dose-response) (DU145 cells [1]; 37° C. for 2 hrs) | timing of cell death (DU145 cells [3]; 40 μM AS1411) | cytotoxicity at higher concentrations (DU145 cells [3]; concentrations higher than 40 μM, early time point (2 h)) | co-localization with transferrin (DU145 cells [2]; 5 μg/ml transferrin, 10 μM AS1411 labeled with Alexa Fluor 488, 30 min at 37° C.)
1 | 5′-Fluor-d(TTTCCTCCTCCTCCTTCTCCTCCTCCTCC) (DNA TTTCCTCCTCCTCCTTCTCCTCCTCCTCC; DNA, 5' {Fluor}, backbone and methylation of C not given here) [FL-CRO, reference compound] | consistently much lower than FL-AS1411 | much lower than FL-AS1411 | – | – | – | – | – | – | – | – | – | – | –
2 | 5′-d(GGTGGTGGTGGTTGTGGTGGTGGTGG) [AS1411] | – | – | Yes | Yes | Yes | Yes | Yes | sensitive | Yes | did not appear to have saturable uptake | within hours | apparent cytotoxicity | non-overlapping vesicles
